Laboratory results taken from publication PMC6429159, “Evolution and Biological Evaluation of Matrinic Derivatives with Amantadine Fragments As New Anti-Influenza Virus Agents” (Molecules, 2019).
Structures can show the parent of a compound that is named as a salt.

Columns and labels:
[1] = Stability assay in whole blood; type: in vitro ADME, SD rats; conditions: in vitro, 37 °C
Experimental: The results hinted that 9f owned a good PK stability profile in blood, and it was chosen for the next investigation.
The fresh bloods were collected on the day of experiment from SD rats, and pre-warmed in a water bath at 37 °C. A concentration of 10 mM tested compound or enalapril stock solutions were prepared in DMSO, and then diluted with 45% MeOH/H2O to achieve […] dosing solutions. […] At the end of incubation, for each sample, […] water and […] of stop solution (200 ng·mL^−1 tolbutamide plus 20 ng·mL^−1 buspirone in acetonitrile) were immediately added to precipitate the protein, and centrifuged at 4000 rpm for 20 min. An aliquot of supernatant ([…]) was then extracted, mixed with […] H2O, and then shaken at 800 rpm for about 10 min before being submitted for a liquid chromatography-tandem mass […] (LC-MS/MS) analysis. The experiment was repeated twice.
Figure 3 The stability assessments of key compounds 9f and 9j in whole blood. […]

MDCK cells = assay: Cytotoxicity assay; type: cell-based; conditions: 50% cytotoxic concentration, 48 hr
Experimental: A three-fold dilution compound was added to cell monolayer, and the cells continued to be cultivated for 48 hr, and then the CPE was recorded. The TC50 value of each compound was calculated by the methods of Reed & Muench.

[2] = test system: influenza virus A/hanfang/359/95 (H3N2); assay: organism not typed; type: cell-based; conditions: MDCK cells; for IC50: 50% virus-inhibitory concentration after 40 hr at 37 °C, – = no anti-H3N2 activity at the maximum non-toxic concentration; for anti-H3N2 activity (in words): CPE assay
[3] = test system: influenza virus A/Fort Monmouth/1/1947 (H1N1); assay: organism not typed; type: cell-based; conditions: MDCK cells, CPE

SMILES | melting point | TC50 (MDCK cells) [µM] | IC50 [2] [µM] | other results
CCOC(=O)[C@H](CCc1ccccc1)N[C@@H](C)C(=O)N1CCC[C@H]1C(=O)O [enalapril, (S)-N-[1-(ethoxycarbonyl)-3-phenylpropyl]-Ala-Pro maleate, reference compound] |  |  |  | stability in whole blood (in words) [1]: hydrolyzed quickly
O=C(CC1CC2CCC1C2)OCCCC[C@@H]1[C@H]2CCCN3CCC[C@@H](CN1S(=O)(=O)c1ccc(C(F)(F)F)cc1)[C@@H]23 (stereo partly shown) (as salt: hydrochloride) [Compound 9i, 12N-p-Trifluoromethlybenzenesulfonyl matrinic butyl-2’-norbornane acetate hydrochloride] | 223 °C (dec.) |  |  | 
CC(C)(C)C(=O)OCCCC[C@@H]1[C@H]2CCCN3CCC[C@@H](CN1S(=O)(=O)c1cccc(C(F)(F)F)c1)[C@@H]23 [Compound 9l, 12N-m-Trifluoromethlybenzenesulfonyl matrinicbutylpivalate hydrochloride] |  | 52.9 ± 8.0 | 18.2 ± 3.2 | 
O=C(OCCCC[C@@H]1[C@H]2CCCN3CCC[C@@H](CN1S(=O)(=O)c1cccc(C(F)(F)F)c1)[C@@H]23)C12CC3CC(CC(C3)C1)C2 [Compound 9d, 12N-m-Trifluoromethlybenzenesulfonyl matrinic butyl adamantine-1’-carboxylate hydrochloride] |  | 54.9 ± 3.5 | 5.9 ± 0.9 | IC50 [3]: 22.4 ± 1.3 µM
O=C(OCCCC[C@@H]1[C@H]2CCCN3CCC[C@@H](CN1S(=O)(=O)c1cccc(C(F)(F)F)c1)[C@@H]23)C12CC3CC(CC(C3)C1)C2 (as salt: hydrochloride) [Compound 9d, 12N-m-Trifluoromethlybenzenesulfonyl matrinic butyl adamantine-1’-carboxylate hydrochloride] | 190 to 191 °C |  |  | 
O=C(OCCCC[C@@H]1[C@H]2CCCN3CCC[C@@H](CN1S(=O)(=O)c1ccc(C(F)(F)F)cc1)[C@@H]23)C12CC3CC(CC(Br)(C3)C1)C2 [Compound 9c, 12N-p-Trifluoromethlybenzenesulfonylmatrinicbutyl-3’-bromoadamantane-1’-carboxylate hydrochloride] |  | 73.6 ± 4.3 | 8.2 ± 2.07 | IC50 [3]: 27.5 ± 0.1 µM
O=C(CC1CC2CCC1C2)OCCCC[C@@H]1[C@H]2CCCN3CCC[C@@H](CN1S(=O)(=O)c1ccc(C(F)(F)F)cc1)[C@@H]23 (stereo partly shown) [Compound 9i, 12N-p-Trifluoromethlybenzenesulfonyl matrinic butyl-2’-norbornane acetate hydrochloride] |  | 129.0 ± 20.9 | 25.7 ± 4.8 | 
O=C(CC12CC3CC(CC(C3)C1)C2)OCCCC[C@@H]1[C@H]2CCCN3CCC[C@@H](CN1S(=O)(=O)c1ccc(C(F)(F)F)cc1)[C@@H]23 [Compound 9b, 12N-p-Trifluoromethlybenzenesulfonyl matrinic butyl-1’-adamantaneacetatehydrochloride] |  | 61.9 ± 1.9 | 28.4 ± 2.3 | 
NC12CC3CC(CC(C3)C1)C2 [AH, amantadine hydrochloride, reference compound] |  |  | 3.25 ± 0.5 | IC50 [3]: 2.73 µM
O=C(OCCCC[C@@H]1[C@H]2CCCN3CCC[C@@H](CN1S(=O)(=O)c1ccc(C(F)(F)F)cc1)[C@@H]23)C12CC3CC(CC1C3)C2 [Compound 9g, 12N-p-Trifluoromethlybenzenesulfonylmatrinicbutyl-3’-noradamantane-1’-carboxylate hydrochloride] |  | 38.5 ± 6.6 |  | anti-H3N2 activity (in words) [2]: complete loss in activity
CCCC[C@@H]1[C@H]2CCCN3CCC[C@@H](CN1S(=O)(=O)c1cccc(C(F)(F)F)c1)[C@@H]23 [Compound 7b] |  | 86.6 ± 2.3 | 28.9 ± 2.4 | 
CCCC[C@@H]1[C@H]2CCCN3CCC[C@@H](CN1S(=O)(=O)c1ccc(C(F)(F)F)cc1)[C@@H]23 [Compound 7a] |  | 79.8 ± 4.7 | 21.3 ± 1.9 | 
O=C(OCCCC[C@@H]1[C@H]2CCCN3CCC[C@@H](CN1S(=O)(=O)c1cccc(C(F)(F)F)c1)[C@@H]23)C12CC3CC(CC1C3)C2 (as salt: hydrochloride) [Compound 9h, 12N-m-Trifluoromethlybenzenesulfonylmatrinicbutyl-3’-noradamantane-1’-carboxylate hydrochloride] | 207 °C (dec.) |  |  | 
O=C(OCCCC[C@@H]1[C@H]2CCCN3CCC[C@@H](CN1S(=O)(=O)c1ccc(C(F)(F)F)cc1)[C@@H]23)C12CC3CC(CC(C3)C1)C2 [Compound 9a, 12N-p-Trifluoromethlybenzenesulfonyl matrinic butyl adamantine-1’-carboxylate hydrochloride] |  | 19.5 ± 2.8 | 16.5 ± 2.9 | 
O=C(OCCCC[C@@H]1[C@H]2CCCN3CCC[C@@H](CN1S(=O)(=O)c1ccc(C(F)(F)F)cc1)[C@@H]23)C12CC3CC(CC(Br)(C3)C1)C2 (as salt: hydrochloride) [Compound 9c, 12N-p-Trifluoromethlybenzenesulfonylmatrinicbutyl-3’-bromoadamantane-1’-carboxylate hydrochloride] | 222 to 223 °C |  |  | 
O=C(OCCCC[C@@H]1[C@H]2CCCN3CCC[C@@H](CN1S(=O)(=O)c1cccc(C(F)(F)F)c1)[C@@H]23)C12CC3CC(CC1C3)C2 [Compound 9h, 12N-m-Trifluoromethlybenzenesulfonylmatrinicbutyl-3’-noradamantane-1’-carboxylate hydrochloride] |  | 59.7 ± 0.0 |  | anti-H3N2 activity (in words) [2]: complete loss in activity
O=C(OCCCC[C@@H]1[C@H]2CCCN3CCC[C@@H](CN1S(=O)(=O)c1ccc(C(F)(F)F)cc1)[C@@H]23)C12CC3CC(CC(C3)C1)C2 (as salt: hydrochloride) [Compound 9a, 12N-p-Trifluoromethlybenzenesulfonyl matrinic butyl adamantine-1’-carboxylate hydrochloride] | 231 °C (dec.) |  |  | 
CCCC[C@@H]1[C@H]2CCCN3CCC[C@@H](CN1S(=O)(=O)c1ccccc1C(F)(F)F)[C@@H]23 [Compound 7c] |  | 86.6 ± 3.8 | 50 ± 1.1 | 
CC(C)(C)C(=O)OCCCC[C@@H]1[C@H]2CCCN3CCC[C@@H](CN1S(=O)(=O)c1ccc(C(F)(F)F)cc1)[C@@H]23 (as salt: hydrochloride) [Compound 9k, 12N-p-Trifluoromethlybenzenesulfonyl matrinic butyl pivalate hydrochloride] | 219 to 221 °C |  |  | 
O=C(OCCCC[C@@H]1[C@H]2CCCN3CCC[C@@H](CN1S(=O)(=O)c1ccc(C(F)(F)F)cc1)[C@@H]23)C12CC3CC(CC1C3)C2 (as salt: hydrochloride) [Compound 9g, 12N-p-Trifluoromethlybenzenesulfonylmatrinicbutyl-3’-noradamantane-1’-carboxylate hydrochloride] | 186 to 187 °C |  |  | 
O=C(CC12CC3CC(CC(C3)C1)C2)OCCCC[C@@H]1[C@H]2CCCN3CCC[C@@H](CN1S(=O)(=O)c1ccc(C(F)(F)F)cc1)[C@@H]23 (as salt: hydrochloride) [Compound 9b, 12N-p-Trifluoromethlybenzenesulfonyl matrinic butyl-1’-adamantaneacetatehydrochloride] | 227 °C (dec.) |  |  | 
O=C(CC12CC3CC(CC(C3)C1)C2)OCCCC[C@@H]1[C@H]2CCCN3CCC[C@@H](CN1S(=O)(=O)c1cccc(C(F)(F)F)c1)[C@@H]23 [Compound 9e, 12N-m-Trifluoromethlybenzenesulfonyl matrinic butyl-1’-adamantaneacetatehydrochloride] |  | 63.4 ± 2.3 | 11.1 ± 1.5 | 
CC(C)(C)C(=O)OCCCC[C@@H]1[C@H]2CCCN3CCC[C@@H](CN1S(=O)(=O)c1cccc(C(F)(F)F)c1)[C@@H]23 (as salt: hydrochloride) [Compound 9l, 12N-m-Trifluoromethlybenzenesulfonyl matrinicbutylpivalate hydrochloride] | 162 to 164 °C |  |  | 
CC(C)(C)C(=O)OCCCC[C@@H]1[C@H]2CCCN3CCC[C@@H](CN1S(=O)(=O)c1ccc(C(F)(F)F)cc1)[C@@H]23 [Compound 9k, 12N-p-Trifluoromethlybenzenesulfonyl matrinic butyl pivalate hydrochloride] |  | 94.3 ± 11.3 |  | 
O=C(CC12CC3CC(CC(C3)C1)C2)OCCCC[C@@H]1[C@H]2CCCN3CCC[C@@H](CN1S(=O)(=O)c1cccc(C(F)(F)F)c1)[C@@H]23 (as salt: hydrochloride) [Compound 9e, 12N-m-Trifluoromethlybenzenesulfonyl matrinic butyl-1’-adamantaneacetatehydrochloride] | 155 to 156 °C |  |  | 
